Results on 6 compounds are retold here after US20020025337A1, “LIPID VEHICLE DRUG DELIVERY COMPOSITION CONTAINING VITAMIN E” (priority 1995, published 2002).

SMILES strings stand for the structures. Converted amounts (≈) assume the structure as drawn.

The nature of the data set: physchem. The settings on record: for solubility / solubility at 18 h: 25 °C. As for the experimental part: To measure the SVE of a drug, saturated solutions of the drug are prepared in methanol and chloroform. An appropriate means of preparing a saturated solution is to suspend approximately 60 mg of drug in 3 ml of the solvent and stir for 24 hours at room temperature. If all of the drug dissolves during this time, further 10 mg aliquots should be added until a suspension is again formed. After 24 hours, the suspension are centrifuged or filtered to separate drug in solution from undissolved particulate drug. The drug solutions are assayed for drug content by an appropriate means, eg. high performance liquid chromatography, and the saturated solubility calculated. The SVE is calculated by dividing the solubility in chloroform by the solubility in methanol and expressed as weight in volume (w/v).
Into each of two 10 ml bottles was weighed 60 mg of itraconazole. To one bottle was added 3 ml of chloroform. […] Further itraconazole was added in 100 mg aliquots until a suspension was formed. […] To the other bottle was added 3 ml of methanol. A magnetic stirrer bar was added to each bottle and the contents were left to stir on a magnetic stirrer. After being left overnight to stir (18 hours), the contents of each bottle were filtered through a 0.1 μm PTFE filter (Whatman). […] To assay the methanol filtrate for itraconazole content, 1 ml was diluted to 5 ml with the same diluent used for the chloroform analysis. Both samples were assayed for itraconazole content using reverse-phase high performance liquid chromatography.

[1] abbreviates: oil or lipid, Solubility (mg/ml) Vitamin E.
Setting [2] is: organic solvent or mixture, thermodynamic from solid, Solubility (mg/ml) Chloroform.
Setting [3] is: organic solvent or mixture, thermodynamic from solid, Solubility (mg/ml) Methanol.

For `C[C@@H]1[C@H](O)[C@@H](C)/C=C/C=C/C=C/C=C/C=C/C=C/C=C/[C@H](O[C@@H]2O[C@H](C)[C@@H](O)[C@H](N)[C@@H]2O)C[C@@H]2O[C@](O)(C[C@@H](O)C[C@@H](O)[C@H](O)CC[C@@H](O)C[C@@H](O)CC(=O)O[C@H]1C)C[C@H](O)[C@H]2C(=O)O` [Amphotericin], the “Solubility (mg/ml) Chloroform” value is on record as “insol”, the “Solubility (mg/ml) Vitamin E” value is “insol” and the “Solubility (mg/ml) Water” value is given as “insol”.

Regarding `CC(C)CCC[C@@H](C)[C@H]1CC[C@H]2[C@@H]3CC=C4C[C@@H](O)CC[C@]4(C)[C@H]3CC[C@]12C` [Cholesterol], the “Solubility (mg/ml) Water” value is on record as “insol”. Further, under setting [1], the concentration in solution (solubility) came to 150 mg/mL (≈ 388 mM). Also, the solubility (usually how much of the substance goes into solution per volume) under setting [2] turned out to be 200 mg/mL (≈ 517 mM). Besides, under setting [3], the solubility is 5 mg/mL (≈ 12.9 mM).

`CC(C)[C@@H](C)/C=C/[C@@H](C)[C@H]1CC[C@H]2C3=CC=C4C[C@@H](O)CC[C@]4(C)[C@H]3CC[C@]12C` [Ergosterol]: the “Solubility (mg/ml) Water” value is listed as “insol”. The same compound yielded a solubility under setting [1] of 50 mg/mL (≈ 126 mM). Further, under setting [2], the solubility amounted to 32 mg/mL (≈ 80.7 mM). Besides, under setting [3], the solubility turned out to be 1.5 mg/mL (≈ 3.78 mM).

As to `CCC(C)n1ncn(-c2ccc(N3CCN(c4ccc(OCC5COC(Cn6cncn6)(c6ccc(Cl)cc6Cl)O5)cc4)CC3)cc2)c1=O` (centres unmarked) [Itraconazole], the “Solubility (mg/ml) Water” value is listed as “insol”. Under setting [1], this compound returned a solubility of 60 mg/mL (≈ 85 mM). The solubility (oil or lipid, solubility of the drug in vegetable oils) is at most 0.4 mg/mL. The solubility under setting [2] worked out at 500 mg/mL (≈ 709 mM). Besides, the solubility at 18 h (organic solvent or mixture, thermodynamic from solid, solubility of itraconazole in chloroform) stood at 350 mg/mL (≈ 496 mM). Further, where the note is “organic solvent or mixture, thermodynamic from solid, solubility of itraconazole in methanol”, the solubility at 18 h came out at 0.7 mg/mL (≈ 0.992 mM). Where the note is “18 h”, the SVE value came out at 500.

For the compound `C[C@]12C=CC(=O)C=C1CC[C@@H]1[C@@H]2[C@@H](O)C[C@@]2(C)[C@H]1CC[C@]2(O)C(=O)CO` [Prednisolone], the solubility (organic solvent or mixture, thermodynamic from solid, Solubility (mg/ml) Methanol, methanol, room temperature (25° C.)) is 33 mg/mL (≈ 91.6 mM).

Turning to `CC(=O)O[C@H]1C(=O)[C@@]2(C)[C@H]([C@H](OC(=O)c3ccccc3)[C@]3(O)C[C@H](OC(=O)[C@H](O)[C@@H](NC(=O)c4ccccc4)c4ccccc4)C(C)=C1C3(C)C)[C@]1(OC(C)=O)CO[C@@H]1C[C@@H]2O` [Taxol], the “Solubility (mg/ml) Water” value is “insol”.
